Assay results taken from patent publication US12427161B2, “Methods for treating and pharmaceutical compositions” (Boehringer Ingelheim International GmbH, priority 2015, dated 2025).

Columns and labels:
[1] = system: corporal strips of diabetic GK rats; assay: EFS-induced relaxation of PHE-precontracted corpora cavernosa strips (ex vivo isometric tension); parameters: species or system rat
Protocol: In addition, to further evaluate erectile function, at the end of the in vivo evaluation of the ED, the penis of 24 GK rats (groups IIA & IIIA) and 12 wistar rats (group I) were immediately harvested and the corpora cavernosa (CC) dissected for ex vivo isometric tension studies. After extensive washings, corporal strips were incubated in the presence of guanethidine (5 μM) and atropine (1 μM) that were also added to the organ chambers for the remainder of the experiments. The corporal strips were placed between two parallel platinum electrodes in the organ baths. After equilibration (60 min), the electric field stimulation (EFS) experiments were started. Firstly, a priming period was observed where corporal strips from Wistar, GK (control) and GK_Chronic empa were exposed to phenylephrine (PHE) (10^−5 M) followed by an EFS-induced relaxation at 1 ms, 10 s, 300 mA and 20 Hz. Then, after washings, frequency-response curves (FRC) to EFS (1-2-4-8-16-32 Hz) was constructed on PHE-precontracted corporal strips (PHE 10^−5 M). Frequency response-curves (FRC) to EFS were performed by successive stimulation of the corporal strips at 1 ms, 10 s, 300 mA and increasing frequencies (1, 2, 4, 8, 16 and 32 Hz). […]
The results from duplicate determinations in one experiment with CC from one rat were averaged and the data expressed as mean±SEM for N experiments using CC from N different rats. […]

[2] = system: Goto-Kakizaki diabetic rats (GK rats); assay: Erectile responses to electrical stimulation of the cavernous nerve (ES CN), intracavernous pressure in anesthetized rats; type: in vivo, rat
Protocol: Adult male Wistar (Charles River, France) and age-matched GK rats (Metabrain Research, Chilly-Mazarin, France) were housed at least 7 days prior to the beginning of the treatment with free access to control diet and water and maintained on an inversed 12 h dark/light cycle. At 15 weeks of age, treatments were started; n=12 Wistar (group I) rats and n=24 GK (group II) rats were fed with a control diet, while n=24 GK rats (group III) were fed for 28 days by a medicated diet i.e., control diet premixed with empagliflozin 300 ppm (parts per million corresponding to an average of 25.3 mg/kg body weight of empaglfilozin in that experiment).
On day 29th after starting treatment administration, and approximately 16 hours after the last treatment administration, fasted rats (19 weeks of age) underwent an in vivo evaluation of their erectile function after electrical stimulation of the cavernous nerve (ES CN), in comparison to acute dosing of sildenafil.
Erectile responses were elicited by electric stimulation (ES) of the cavernous nerve (CN) and measured by monitoring intracavernous pressure (ICP) in anesthetized rats according to an experimental procedure previously described and well-standardized. After an overnight fasting period, rats were anesthetized (urethane […]) and their temperature maintained at 37° C. using a homoeothermic blanket. A tracheotomy was performed to prevent aspiration of saliva and to perform, when required, artificial ventilation. The carotid artery was catheterized with polyethylene tubings filled with heparinized saline (25 UI/ml) to record blood pressure (BP) via a pressure transducer (Elcomatic 750, Glasgow, UK). Simultaneous computerized measure of BP and ICP was performed. CN was exposed at the lateral aspect of the prostate, with the aid of a dissecting microscope and mounted on a bipolar platinum electrode connected to an electrical stimulator (AMS 2100, Phymep, France). In some animals an acute dose of sildenafil (0.3 mg/kg) or vehicle was intravenously injected. […] The CN was stimulated at 6V, 1 ms for 45 s by different stimulation frequencies (0, 2.5, 5, 7.5, 10, 12.5 and 15 Hz) in a randomized manner in order to assess the erectile responses. These different electrical stimulations on the increase of ICP were repeated twice in view of establishing a frequency-response curve for each animal.
Mean arterial pressure (MAP) and the amplitude of the erectile responses elicited by each ES CN were quantified for each rat and averaged for each experimental group by calculating: • ICP (mmHg)/MAP (mmHg)×100 with AICP being the difference between ICP in the flaccid state, i.e. before stimulation and ICP during the plateau phase of the erectile response, and MAP, the mean arterial pressure during the plateau phase. • AUC45/MAP with AUC45, the area under the curve during the first 45 seconds after the beginning of the electrical stimulation of the cavernous nerve and determined using the ICP level in the flaccid state before the onset of the stimulation. • AUCtot/MAP with AUCtot, the area under the curve during the entire erectile response, measured from the beginning of the electrical stimulation until the end of the erectile response and determined using the ICP level in the flaccid state before the onset of the stimulation. • ICP increase and AUC were normalized with MAP to account for the close influence of the systemic blood pressure in the amplitude of ICP increase during the plateau phase of the erectile response.
For erectile function evaluation, comparisons of frequency-response curves were performed with a two-way ANOVA statistical analysis test followed by a Bonferroni's post-test. In case of significant interaction between the two factors (i.e. frequency of ES CN and experimental group), the difference between groups of rats was examined by the modified Student's t-test with the Bonferroni's adjustment for multiple comparisons.

[3] = metformin on its own, in the diabetic; cited from earlier work
GK rats = conditions: acute single dose 0.3 mg/kg; cited from earlier work

## OC[C@H]1O[C@@H](c2ccc(Cl)c(Cc3ccc(O[C@H]4CCOC4)cc3)c2)[C@H](O)[C@@H](O)[C@@H]1O [empagliflozin, 1-chloro-4-(β-D-glucopyranos-1-yl)-2-[4-((S)-tetrahydrofuran-3-yloxy)-benzyl]-benzene]
[1]; 4-week empagliflozin 25.3±0.9 mg/kg/d, mean±SEM, not significantly different from untreated
  maximal relaxation induced by EFS at 32 Hz (percentage of inhibition of the contractile response to PHE): −42.0±2.9%
[1]; 4-week treatment of empagliflozin at 25.3±0.9 mg/kg/d, vs untreated GK, p<0.05, 2-way ANOVA, FIG. 3
  relaxation induced by EFS on PHE precontracted cavernosal strips (frequency-response curve): slightly but significantly improved
[2]; chronic empagliflozin 25.3±0.9 mg/kg/day
  pro-erectile facilitator effect compared with acute IV dose of sildenafil at 0.3 mg/kg: slightly but significantly lower
[2]; empagliflozin in diet 25.3±0.9 mg/kg/day for 4 weeks, vs GK control diet, p=0.08, 2-way ANOVA, FIG. 1
  erectile responses to ES CN in terms of ΔICP/MAP: no difference could be statistically detected
[2]; empagliflozin premixed with diet 25.3±0.9 mg/kg/day for 4 weeks, vs GK control diet, p<0.05, FIG. 2a
  erectile responses to ES CN in terms of AUC45/MAP: improved
[2]; empagliflozin premixed with diet 25.3±0.9 mg/kg/day for 4 weeks, vs GK control diet, p<0.05, FIG. 2b
  erectile responses to ES CN in terms of AUCtot/MAP: improved

## CN(C)C(=N)N=C(N)N [metformin]
[3]
  average improvement in the HbA1c value: 1.0-1.5%

## CCCc1nn(C)c2c(=O)[nH]c(-c3cc(S(=O)(=O)N4CCN(C)CC4)ccc3OCC)nc12 [sildenafil]
GK rats
  impaired erectile function in GK rats: partially improved
[2]; sildenafil 0.3 mg/kg acute i.v. 4 min before evaluation, vs GK control, p<0.0001, 2-way ANOVA, FIG. 1
  erectile response to ES CN in terms of ΔICP/MAP: significantly increased
[2]; sildenafil 0.3 mg/kg acute i.v., vs GK control, p<0.0001, 2-way ANOVA, FIG. 2a
  erectile response to ES CN in terms of AUC45/MAP: significantly increased
[2]; sildenafil 0.3 mg/kg acute i.v., vs GK control, p<0.0001, 2-way ANOVA, FIG. 2b
  erectile response to ES CN in terms of AUCtot/MAP: significantly increased
